Source: patent US20030166548A1, “PLAP polypeptides and methods of producing and using same” (Board of Regents, The University of Texas System, priority 1997, published 2003)
Where “and” joins values, the source holds several entries; their conditions need not be identical. Identical values can stand only once.

Legend:
Human serum PLA2 = assay: PLA2 assay of human serum fractions eluted from MLT-Sepharose column, [3H]-oleic acid-labeled E. coli substrate; assay type: biochemical; details: for PLA2 activity: Melittin 5 μM
Procedure: (§1) The procedure is a modification of that described by Elsbach and Weiss (1991). E. coli strain SJ198 was grown in 10 ml M9 minimal medium plus 50 μl glycerol, 100 μl vitamin mix, 40 μl methionine (25 mg/ml), 50 μl [^3H]-oleic acid (0.1 μCi/μl), and 100 μl casamino acids (100 mg/ml). After incubation at 37° C. overnight, the culture was centrifuged and washed three times in PBS, autoclaved for 15 minutes, washed again three times in PBS and stored at −70° C. The reaction mixture contained 10 μl of 5×assay of the PLA2 enzyme preparation, 10 μl of [^3H]-oleic acid-labeled E. coli cells, and enough H2O to adjust the total volume to 50 μl. The reaction mixture was incubated for 15 minutes at 37° C. in a waterbath. To stop the reaction, the tubes were transferred immediately to an ice bath and an equal volume of either 1 M HCl or 4 volumes cold PBS was added. After centrifugation in a microfuge at 4° C. for 10 minutes, an aliquot equal to 25% of the volume of the supernatant was used to measure the amount of [^3H]-labeled oleic acid released from the E. coli cells by PLA2 using liquid scintillation counting.
Isolation of PLA2 from human serum: 10 ml of heat-inactivated human serum Gemini Bio Product Inc. (Calabasas, Calif.) was diluted 1:10 with PBS and loaded onto Melittin-Sepharose as well as PLAP-Sepharose columns pre-equilibrated with PBS. Columns were washed with 500 ml of PBS overnight and eluted with 0.5M glycine/HCl buffer, pH 2.8 and 2 ml fractions were collected, neutralized to pH 7.2 with Tris-HCl buffer and analyzed for PLA2 activity using [^3H]labeled oleic acid—E. coli cells as substrate. Eluted fractions were concentrated and dialyzed in centricon 10 (Amicon, Inc., Beverly, Mass.) and the pass through was discarded. The retentate was again passed through centricon 30 and concentrated to about ⅕th of the volume. Both retentate and pass through were subjected to PLA2, assay with and without melittin.

PLA2 from bee venom [1] = target: T1, PLA2 from bee venom (Apis mellifera, UniProt P00630); assay type: biochemical
[2] = target: T2, affinity-purified PLA2 enzyme isolated from synovial fluid of rheumatoid arthritis patients (Homo sapiens, UniProt P14555); assay: PLA2 assay, [3H]-oleic acid-E. coli, affinity-purified enzyme; assay type: biochemical; details: mean of three determinations
T2 construct: from tissue
T2 sequence (P14555 21-144): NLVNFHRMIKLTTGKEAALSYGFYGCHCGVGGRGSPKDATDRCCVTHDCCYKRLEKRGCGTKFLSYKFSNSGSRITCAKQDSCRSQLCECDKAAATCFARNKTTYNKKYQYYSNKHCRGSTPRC
Procedure: as §1

[3] = target: T3, PLA2 from bovine pancreas (Bos taurus, UniProt P00593); assay: PLA2 assay using [3H]-oleic acid labeled E. coli; assay type: biochemical; details: Bovine P., peptide 1 μg
Procedure: (§2) PLA2 activity may also be assayed using [^3H]-oleic acid labeled Escherichia coli, in a modification of the procedure previously described by [Elsbach and Weiss, 1991]. E. coli cells grown in the presence of [^3H]-oleic acid are incubated with PLA2 enzyme. The reaction is quenched either by addition of 1M HCl or by dilution in cold phosphate buffered saline (PBS). The amount of [^3H]-oleic acid released from the E. coli cells by PLA2 is measured using scintillation counting.
as §1

PLA2 from snake venom [4] = assay: PLA2 assay using [3H]-oleic acid labeled E. coli; assay type: biochemical; details: Snake V., peptide 1 μg
Procedure: as §2, §1

[5] = tested on: PLA2 from synovial fluid from rheumatoid arthritis patients; assay: PLA2 assay using unsonicated vesicles; assay type: biochemical, human; details: Synovial F., peptide 1 μg
Procedure: (§3) In general, assays involve incubation of purified PLA2 or a mixture believed to contain PLA2, such as synovial fluid, with a PLA2 substrate containing radio-labeled arachidonic acid in the presence of the inhibitor of interest. Suitable substrates for PLA2 reactions include any glycerol-3-phosphate with arachidonic acid substituted at the sn-2 position. The preferred substrates of the assays of this invention include [^14C]-arachidonic acid-substituted phosphatidylcholine or [^14C]-arachidonic acid-substituted phosphatidylethanolamine. After the reaction is stopped by addition of chloroform and methanol, TLC chromatography is used to separate the released [^14C] arachidonic acid from [^14C] arachidonic acid-labeled phosphatidylcholine/ethanolamine, which may be quantified by scintillation counting.
Radiolabeled phosphatidylcholine or phosphatidylethanolamine containing [^14C]-arachidonic acid in the sn-2 position of the phospholipid was dried under nitrogen and the lipid vesicles were prepared in 0.05% Triton X-100. […] The silica gel region corresponding to arachidonic acid was scraped and transferred to scintillation vials containing 10 ml of scintillation cocktail, which is commercially available and designed to measure the amount of radioactivity in aqueous samples when used with a liquid scintillation counter. […]

[6] = target: T3, PLA2 from bovine pancreas; assay: PLA2 assay using unsonicated vesicles; assay type: biochemical; details: Bovine P., peptide 1 μg
Procedure: as §3
(§4) Radiolabeled phosphatidylcholine or phosphatidylethanolamine containing [^14C]-arachidonic acid in the sn-2 position of the phospholipid was dried under nitrogen and the lipid vesicles were prepared in 0.05% Triton X-100. The reaction mixture contained 10 μl of phospholipid substrate, 10 μl of 5× assay buffer (500 mM Tris[hydroxymethyl]aminomethane […]HCl (Tris HCl), pH 8.0; 500 mM NaCl; 5.0% fatty acid-free bovine serum albumin (BSA); and 5 mM CaCl2), 10 μl PLA2 enzyme preparation, and sufficient H2O to adjust the total volume to 50 μl The reaction mixture was incubated for 30 minutes at 37° C. in a waterbath and stopped by the addition of 50 μl of chloroform and methanol (1:3), containing 200 μg/ml of unlabeled arachidonic acid and then the mixture was vortexed Lipid was extracted by adding 50 μl of chloroform and 50 μl of 4M KCl, after which, the mixture was vortexed and centrifuged in a microfuge at 14,000 rpm for 10 minutes A 25 μl aliquot of the organic phase was spotted onto glass silica gel plates (Whatman LK6DF) and placed in a thin layer chromatography chamber with a solvent system containing petroleum ether, diethyl ether, and acetic acid (5:25:1) for 30 minutes. The lipid spots were made visible by placing the silica gel plates in a chamber containing iodine vapor. The silica gel region corresponding to arachidonic acid was scraped and transferred to scintillation vials containing 10 ml of scintillation cocktail, which is commercially available and designed to measure the amount of radioactivity in aqueous samples when used with a liquid scintillation counter. The amount of radionuclide corresponding to [^14C]-arachidonic acid in each vial was determined in a Beckman liquid scintillation counter. Results of these assays are shown in Tables 1 and 2 listed after Example 3.

PLA2 from snake venom [7] = assay: PLA2 assay using unsonicated vesicles; assay type: biochemical; details: Snake V., peptide 1 μg
Procedure: as §3, §4

PLA2 from bee venom [8] = target: T1, PLA2 from bee venom; assay: biochemical; assay type: biochemical
phospholipase D (PLD) = assay: Synthetic melittin added to dissociated membranes from U-937 cells; assay type: biochemical; details: dissociated membranes from human monocyte cell line U-937
[9] = target: T2, affinity-purified PLA2 enzyme isolated from synovial fluid of rheumatoid arthritis patients; assay: PLA2 assay, unsonicated vesicles labeled with [14C]-phosphatidylcholine, affinity-purified enzyme; assay type: biochemical
Procedure: as §4

[10] = tested on: PLA2 from synovial fluid from rheumatoid arthritis patients; assay: PLA2 assay using [3H]-oleic acid labeled E. coli; assay type: biochemical, human; details: Synovial F., peptide 1 μg
Procedure: as §2
as §1, with “After centrifugation in a microfuge at 4° C. for 10 minutes, an aliquot equal to 25% of the volume of the supernatant was used to measure the amount of [^3H]-labeled oleic acid released from the E. coli cells by PLA2 using liquid scintillation counting.” left out

human serum PLA2 (human) [11] = target: human serum PLA2 (human) (UniProt P04054)
human serum PLA2 (human) [12] = target: human serum PLA2 (human) (UniProt P04054); assay: cell-based or functional assay
[13] = target: PLA2 of synovial fluid from rheumatoid arthritis patients (human (rheumatoid arthritis patients)) (UniProt P14555); assay: cell-based or functional assay
synovial fluid PLA2 = assay: Interference of streptavidin-peroxidase binding to biotin-melittin by synovial fluid PLA2; design: species or system human; details: plate coated with biotinylated synthetic melittin, FIG. 6B
[14] = target: T4, bee venom PLA2 (bee), P00630; assay: cell-based or functional assay
T4 chain: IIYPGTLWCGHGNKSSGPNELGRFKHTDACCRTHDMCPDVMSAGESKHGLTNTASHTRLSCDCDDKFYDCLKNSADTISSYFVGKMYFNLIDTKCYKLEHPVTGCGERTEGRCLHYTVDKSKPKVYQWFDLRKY

[15] = C: [3H]-oleic acid-labeled E. coli, stopped with cold PBS
[16] = D: [3H]-oleic acid-labeled E. coli, stopped with 1N HCl
[17] = A: [14C]-phosphatidylcholine vesicles
[18] = B: phosphatidylethanolamine vesicles

T3 sequence (P00593 23-145): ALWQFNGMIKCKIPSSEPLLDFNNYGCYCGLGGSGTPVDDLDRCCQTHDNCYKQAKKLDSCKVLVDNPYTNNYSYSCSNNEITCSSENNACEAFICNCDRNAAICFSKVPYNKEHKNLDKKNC
human serum PLA2 (human), sequence (P04054 23-148 limits assumed): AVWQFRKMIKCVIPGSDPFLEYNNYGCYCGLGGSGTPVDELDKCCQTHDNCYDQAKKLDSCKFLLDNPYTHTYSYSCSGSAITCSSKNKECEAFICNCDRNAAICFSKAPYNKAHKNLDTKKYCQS

CC[C@H](C)[C@H](NC(=O)CN)C(=O)NCC(=O)N[C@@H](C)C(=O)N[C@H](C(=O)N[C@@H](CC(C)C)C(=O)N[C@@H](CCCCN)C(=O)N[C@H](C(=O)N[C@@H](CC(C)C)C(=O)N[C@H](C(=O)N[C@H](C(=O)NCC(=O)N[C@@H](CC(C)C)C(=O)N1CCC[C@H]1C(=O)N[C@@H](C)C(=O)N[C@@H](CC(C)C)C(=O)N[C@H](C(=O)N[C@@H](CO)C(=O)N[C@@H](Cc1c[nH]c2ccccc12)C(=O)N[C@H](C(=O)N[C@@H](CCCCN)C(=O)N[C@@H](CCCNC(=N)N)C(=O)N[C@@H](CCCCN)C(=O)N[C@@H](CCCNC(=N)N)C(=O)N[C@@H](CCC(N)=O)C(=O)N[C@@H](CCC(N)=O)C(N)=O)[C@@H](C)CC)[C@@H](C)CC)[C@@H](C)O)[C@@H](C)O)C(C)C)C(C)C [Melittin]
PLA2 activity (Human serum PLA2; Human serum PLA2 eluted from MLT-Sepharose column): 219 ± 16.3 nano mol/min/ml
PLA2 activity (Human serum PLA2; eluate Centricon 30 concentrated (5 times)): 192 ± 5.44 nano mol/min/ml
PLA2 activity (Human serum PLA2; eluate Centricon 30 pass through): 172 ± 8.73 nano mol/min/ml
reduction in PLA2 activity in the presence of melittin (Human serum PLA2; fractions after concentration by centricon 10 or 30): 4 fold
type of inhibition of bee venom PLA2 (PLA2 from bee venom [1]): noncompetitive inhibitor
Phospholipase A2 activity C [3H]-oleic acid-E. coli ([2]; peptide 1.0 μM): 0.50 ± 0.12 μ moles/min/ml
Phospholipase A2 activity C [3H]-oleic acid-E. coli ([2]; peptide 5.0 μM): 0.12 ± 0.02 μ moles/min/ml
Phospholipase A2 activity C [3H]-oleic acid-E. coli ([2]; peptide 10 μM): 0.06 ± 0.03 μ moles/min/ml
Phospholipase A2 activity [3, 15]: 0.06 ± 0.03 μmoles/min/mg of protein
Phospholipase A2 activity [3, 16]: 1.51 ± 0.17 μmoles/min/mg of protein
Phospholipase A2 activity (PLA2 from snake venom [4]; [15]): 61.5 ± 2.75 μmoles/min/mg of protein
Phospholipase A2 activity (PLA2 from snake venom [4]; [16]): 59.13 ± 13.97 μmoles/min/mg of protein
Phospholipase A2 activity [5, 17]: 2.9 ± 0.0 × 10^−4 μmole/min ml
Phospholipase A2 activity [5, 18]: 4.7 ± 0.0 × 10^−4 μmole/min ml
Phospholipase A2 activity [6, 17]: 3.6 ± 0.9 × 10^−5 μmoles/min/mg of protein
Phospholipase A2 activity [6, 18]: 2.96 ± 0.0 × 10^−3 μmoles/min/mg of protein
Phospholipase A2 activity (PLA2 from snake venom [7]; [17]): 1.41 ± 0.84 μmoles/min/mg of protein
Phospholipase A2 activity (PLA2 from snake venom [7]; [18]): 0.05 ± 0.03 μmoles/min/mg of protein
EC50 (PLA2 from bee venom [8]): 20 nM
Phospholipase A2 activity (PLA2 from bee venom [8]): 801 ± 55.0 μmoles/min/mg of protein and 1315.0 ± 48.2 μmoles/min/mg of protein
amount of synthetic melittin required to inhibit maximal PLA2 activity (PLA2 from bee venom [8]): 30 mM
effect on phospholipase D (PLD) (phospholipase D (PLD)): stimulates PLD
effect on phospholipase D (PLD) (phospholipase D (PLD); listed as synthetic melittin): resulted in the formation of phosphatidic acid and release of arachidosic acid
Inhibitory Potency ([9]; Table 2A, follows Table 2): 80%
Phospholipase A2 activity B(× 10^−3) [14C]-phosphatidylcholine ([9]; peptide 1.0 μM, mean of three determinations): 0.055 ± 0.010 × 10^−3 μ moles/min/ml
order of inhibitory potency ([9]; rank order from Table 2): MLT>G25>G22>G141>G27>G23
Phospholipase A2 activity [10, 15]: 5.5 ± 0.4 µmol/min/mL
Phospholipase A2 activity [10, 16]: 43.65 ± 3.19 µmol/min/mL

synthetic melittin (peptide)
Purification (human serum PLA2 (human) [11]): 1520 fold
reduction in PLA2 activity in the presence of melittin (human serum PLA2 (human) [12]): 4 fold
Inhibitory Potency [13]: 80%

biotinylated synthetic melittin: biotinylated synthetic melittin used to coat microtiter plates
interference of synovial fluid with streptavidin-peroxidase binding (synovial fluid PLA2): dose-dependent interference

GIGAVLKVLTTGLPALISWIKRKRQQ (modifications not checked) [synthetic melittin]
molar ratio of melittin to PLA2 at maximal inhibition (mol melittin per mol PLA2) [14]: 30
